In patent US20250152592A1, “PHARMACEUTICAL COMPOSITION COMPRISING ALLOPURINOL, FEBUXOSTAT OR PHARMACEUTICALLY ACCEPTABLE SALT THEREOF FOR PREVENTION OR TREATMENT OF CHRONIC KIDNEY DISEASE IN SUBJECT HAVING HIGH SERUM URIC ACID CONCENTRATION” (Indream Healthcare Inc., priority 2022, published 2025):

System: patients with gout and a history of major cardiovascular diseases
Assay: odds ratio for risk of developing or worsening chronic kidney disease, serum uric acid at or above 6 vs below 6
Assay type: in vivo, human
Procedure: In order to confirm the effect of allopurinol and febuxostat on the kidney disease, the data obtained in the clinical trial described above was analyzed.
The patients were classified into patient groups by specific biomarkers such as blood glucose level, blood pressure, and kidney disease steps, and then risks of developing or worsening the kidney disease in patients who had the serum uric acid concentration decreased to less than 6 and patients who maintained the serum uric acid concentration at or above 6 were confirmed using odds ratios (OR) after the administration of allopurinol and febuxostat, and the results are shown in Tables 1 to 3.
Risks of developing the kidney disease of the patients who had the serum uric acid concentration decreased to less than 6 and the patients who maintained the serum uric acid concentration at or above 6 by administering allopurinol were confirmed using the odds ratios, and the results are shown in the following Table 1.
(§1) In Table 6, the risks of developing the kidney disease of the patients who had the serum uric acid concentration decreased to less than 6 and the patients who maintained the serum uric acid concentration at or above 6 by administering febuxostat are confirmed using the odds ratios.
as §1, with “12,” for “6,”, “were” for “by administering febuxostat are”, “ratio, in both patient groups to which allopurinol or febuxostat was administered.” for “ratios.”

[1] = Table 12, both administration groups

SMILES | prevention or treatment of chronic kidney disease when serum uric acid maintained below 6 (Table 12, blood glucose ≥126 mg/dl, DBP ≤80 mm/Hg, or SBP ≤130 mm/Hg) | prevention or treatment of chronic kidney disease when serum uric acid maintained below 6 [1] | risk of developing or worsening the chronic kidney disease, serum uric acid at or above 6 vs below 6 (odds ratio) (allopurinol, blood glucose level of 126 mg/dl or less) | risk of developing or worsening the chronic kidney disease, serum uric acid at or above 6 vs below 6 (odds ratio) (allopurinol, blood glucose level of 126 mg/dl or more) | risk of developing or worsening the kidney disease, serum uric acid at or above 6 vs below 6 (odds ratio) (allopurinol, diastolic blood pressure of 80 mm/Hg or higher) | risk of developing or worsening the chronic kidney disease, serum uric acid at or above 6 vs below 6 (odds ratio) (allopurinol, diastolic blood pressure of 80 mm/Hg or lower) | risk of developing or worsening the chronic kidney disease, serum uric acid at 6 or more vs below 6 (odds ratio) (allopurinol, having congestive cardiac failure) | risk of developing or worsening the chronic kidney disease, serum uric acid at 6 or more vs below 6 (odds ratio) (allopurinol, no congestive cardiac failure) | risk of developing or worsening the chronic kidney disease, serum uric acid at or above 6 vs below 6 (odds ratio) (allopurinol, systolic blood pressure of 130 mm/Hg or higher) | risk of developing or worsening the chronic kidney disease, serum uric acid at or above 6 vs below 6 (odds ratio) (allopurinol, systolic blood pressure of 130 mm/Hg or lower) | prevention or treatment of chronic kidney disease when serum uric acid maintained below 6 (Table 6, blood glucose ≥126 mg/dl, DBP ≤80 mm/Hg, or SBP ≤130 mm/Hg) | prevention or treatment of chronic kidney disease when serum uric acid maintained below 6 (Table 6, serum uric acid of 8 mg/dL or more or gout lasting for 10 years or more)
Oc1ncnc2[nH]ncc12 [allopurinol] | effectively prevented or treated | effectively prevented or treated | about 1.34 times | about 2.53 times | about 1.35 times | about 2.04 times | about 1.21 times | about 1.84 times | about 1.54 times | about 1.93 times |  | 
Cc1nc(-c2ccc(OCC(C)C)c(C#N)c2)sc1C(=O)O [febuxostat] |  | effectively prevented or treated |  |  |  |  |  |  |  |  | effectively prevented or treated | effectively prevented or treated
